Consider 22 molecules from US10947222B2, “Indole derivatives useful as inhibitors of diacylglyceride O-acyltransferase 2” (Merck Sharp & Dohme Corp., priority 2016, dated 2021).

Sequence of human DGAT2 (hDGAT2) (Q96PD7 whole entry): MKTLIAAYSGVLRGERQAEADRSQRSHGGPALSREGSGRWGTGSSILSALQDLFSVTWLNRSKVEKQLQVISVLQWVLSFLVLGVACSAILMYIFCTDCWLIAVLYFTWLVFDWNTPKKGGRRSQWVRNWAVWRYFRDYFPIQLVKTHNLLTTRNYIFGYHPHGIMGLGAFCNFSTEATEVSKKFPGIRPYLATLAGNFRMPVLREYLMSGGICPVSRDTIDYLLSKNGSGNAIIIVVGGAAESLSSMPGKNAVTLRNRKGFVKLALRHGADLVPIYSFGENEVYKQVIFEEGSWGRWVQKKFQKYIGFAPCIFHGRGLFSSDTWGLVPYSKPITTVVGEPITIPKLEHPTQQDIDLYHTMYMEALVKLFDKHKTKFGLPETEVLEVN

This experiment concerns the target human DGAT2 (hDGAT2) (Homo sapiens (Human), UniProt Q96PD7). As to the kind of experiment: DGAT2 enzymatic activity assay (triolein formation, LC/MS/MS). Type of experiment: biochemical. Particulars: Sf-9 membrane prep expressing hDGAT2; 25 μM diolein, 10 μM oleoyl-CoA; triolein by LC/MS/MS. As for the experimental part: Sf-9 insect cells were maintained in Grace's insect cell culture medium with 10% heated-inactivated fetal bovine serum, 1% Pluronic F-68 and 0.14 μg/ml Kanamycine sulfate in Erlenmeyer flasks at 28° C. in a shaker incubator. After infection with untagged baculovirus expressing human DGAT2 (hDGAT2) at multiplicity of infection (MOI) 0.1 for 48 hours, cells were harvested. Cell pellets were suspended in buffer containing 10 mM Tris-HCl (pH 7.5), 1 mM EDTA (pH 8.0), 250 mM sucrose and Complete Protease Inhibitor Cocktail (Roche Diagnostics Corp., Indianapolis, Ill.), and sonicated on ice. Membrane fractions were isolated by ultracentrifugation (100,000×g pellet), resuspended in the same buffer, and frozen (−80° C.) for later use. The protein concentration was determined with the BCA Protein Assay kit (Pierce Biotechnology Inc., Rockford, Ill.). Expression of protein levels was analyzed by immunoblotting with goat polyclonal DGAT2 antibody C-15 and donkey anti-goat IgG HRP (Santa Cruz Biotechnology, Inc., Santa Cruz, Calif.) followed by detection with ECL reagent (GE Healthcare, Piscataway, N.J.).
LC/MS/MS analyses were performed using Thermal Fisher's LX4-TSQ Vantage system. This system consists of an Agilent binary high-performance liquid chromatography (HPLC) pumps and a TSQ Vantage triple quadrupole MS/MS instrument. For each sample, 2 μL samples from the top organic layer of in-plate liquid-liquid extraction were injected onto a Thermo Betabasic C4 column (2.1 mm×20 mm, 5 μm particle size). The samples were then eluted using the following conditions; mobile phase: methanol/water with 0.1% ammonium format=92/8 (v/v), flow rate: 1 mL/min, temperature: 25 C. Data was acquired in positive mode using a heated electrospray ionization (HESI) interface. The operational parameters for the TSQ Vantage MS/MS instrument were a spray voltage of 3000 V, capillary temperature of 280° C., vaporizer temperature 400° C., shealth gas 60 arbitrary unit, Aux gas 40 arbitrary units, S-lens 113 and collision gas 0.16 Pascals. […] (SRM) chromatograms of triolein (Q1:902.9>Q3:602.3) and internal standard (Q1:902.9>Q3:602.3) were collected for 40 sec. The peak area was integrated by Xcalibur Quan software. The ratio between the triolein generated in the reaction and spiked in internal standard was used to generate percentage inhibition and IC50 values. Compound percentage inhibition was calculated by the following formula: Inhibition %/=1−[(compound response−low control)/(high control−low control)]×100%. Potent compounds were titrated and IC50 were calculated by 4 parameter sigmoidal curve fitting formula.
DGAT2 activity was determined by measuring the amount of enzymatic product triolein (1,2,3-Tri(cis-9-octadecenoyl)glycerol) using the membrane prep mentioned above. The assay was carried out in deep well 384 plates in a final volume of 40 μL at rt. The assay mixture contained the following: assay buffer (100 mM Tris.Cl, pH 7.0, 20 mM MgCl2, 5% ethanol), 25 μM of diolein, 10 μM of oleoyl-CoA and 10 ng/μL of DGAT2 membrane.
In general, IC50 refers to the point on the concentration scale where inhibition reaches its midpoint. A higher IC50 goes with weaker potency. In the case of `CC(C)(CN1CCOCC1)NC(=O)c1ccc2c(-c3ccccc3Cl)cn(-c3ccc(F)cc3)c2c1` [Example 4, 3-(2-chlorophenyl)-1-(4-fluorophenyl)-N-(2-methyl-1-morpholinopropan-2-yl)-1H-indole-6-carboxamide], the midpoint of inhibition, the IC50, lay at 629 nM. In the case of `CC1(NC(=O)c2ccc3c(-c4cccc(C5CC5)c4)cn(-c4ccc(F)cn4)c3c2)CCS(=O)(=O)C1` (single isomer, unassigned; enantiomer a) [Example 12-A, 3-(3-cyclopropylphenyl)-1-(5-fluoropyridin-2-yl)-N-(3-methyl-1,1-dioxidotetrahydrothiophen-3-yl)-1H-indole-6-carboxamide (enantiomer A)], the IC50 is 0.79 nM. Molecule `CC1(NC(=O)c2ccc3c(-c4ccccc4Cl)cn(-c4ccc(F)cn4)c3c2)CCS(=O)(=O)C1` (single isomer, unassigned; enantiomer b) [Example 14-B, 3-(2-chlorophenyl)-1-(5-fluoropyridin-2-yl)-N-(3-methyl-1,1-dioxidotetrahydrothiophen-3-yl)-1H-indole-6-carboxamide (Enantiomer B, Slow)] came in with an IC50 of 9.8 nM.

Regarding `Cc1c(-c2cccc(OC(F)F)c2)c2ccc(C(=O)NC3(C)CCS(=O)(=O)C3)cc2n1-c1ccc(F)cc1` (racemic) [Example 28, 3-(3-(difluoromethoxy)phenyl)-1-(4-fluorophenyl)-2-methyl-N-(3-methyl-1,1-dioxidotetrahydrothiophen-3-yl)-1H-indole-6-carboxamide (racemic)], the IC50 worked out at 17 nM. `Cc1cc(C)n(-c2cccc(-c3cn(-c4ccc(F)cc4)c4cc(C(=O)NC5CCS(=O)(=O)C5)ccc34)c2)n1` (racemic) [Example 61, 3-[3-(3,5-dimethyl-1H-pyrazol-1-yl)phenyl]-N-(1,1-dioxidotetrahydrothiophen-3-yl)-1-(4-fluorophenyl)-1H-indole-6-carboxamide (racemic)] returned an IC50 of 929 nM. The molecule `O=C(NC1CCS(=O)(=O)C1)c1ccc2c(-c3cc(Cl)ccn3)cn(-c3ccc(F)cc3)c2c1` (racemic) [Example 21, 3-(4-chloropyridin-2-yl)-N-(1,1-dioxidotetrahydrothiophen-3-yl)-1-(4-fluorophenyl)-1H-indole-6-carboxamide (racemic)] displayed an IC50 of 252 nM.

Take `N#Cc1cccc(-c2cn(-c3ccc(F)cc3)c3cc(C(=O)NC4CCS(=O)(=O)C4)ccc23)c1` (racemic) [Example 45, 3-(3-cyanophenyl)-N-(1,1-dioxidotetrahydrothiophen-3-yl)-1-(4-fluorophenyl)-1H-indole-6-carboxamide (racemic)]: the IC50 turned out to be 13 nM. `COc1ccccc1-c1cn(-c2ccc(F)cc2)c2cc(C(=O)NC3CCS(=O)(=O)C3)ccc12` (racemic) [Example 29, N-(1,1-dioxidotetrahydrothiophen-3-yl)-1-(4-fluorophenyl)-3-(2-methoxyphenyl)-1H-indole-6-carboxamide (racemic)] yielded an IC50 of 223 nM.

Regarding `CC1(NC(=O)c2ccc3c(-c4ccccc4Cl)cn(-c4ncc(F)cn4)c3c2)CCS(=O)(=O)C1` (single isomer, unassigned; enantiomer b) [Example 15-B, 3-(2-chlorophenyl)-1-(5-fluoropyrimidin-2-yl)-N-(3-methyl-1,1-dioxidotetrahydrothiophen-3-yl)-1H-indole-6-carboxamide (enantiomer B, slow)], the midpoint of inhibition, the IC50, lay at 28 nM.

Molecule `C[C@@H](NC(=O)c1ccc2c(-c3ccccc3Cl)cn(-c3ccc(F)cc3)c2c1)c1ccc(C(F)(F)F)nc1` [Example 7, (R)-3-(2-chlorophenyl)-1-(4-fluorophenyl)-N-(1-(6-(trifluoromethyl)pyridin-3-yl)ethyl)-1H-indole-6-carboxamide] returned an IC50 of 671 nM.

`O=C(NC1CCS(=O)(=O)C1)c1ccc2c(-c3ccccc3OC(F)F)cn(-c3ccc(F)cc3)c2c1` (racemic) [Example 42, 3-[2-(difluoromethoxy)phenyl]-N-(1,1-dioxidotetrahydrothiophen-3-yl)-1-(4-fluoropheny)-1H-indole-6-carboxamide (racemic)] yielded an IC50 of 108 nM. Then `Cc1ccnc(-c2cn(-c3ccc(F)cc3)c3cc(C(=O)NC4CCS(=O)(=O)C4)ccc23)c1` (racemic) [Example 23, N-(1,1-dioxidotetrahydrothiophen-3-yl)-1-(4-fluorophenyl)-3-(4-methylpyridin-2-yl)-1H-indole-6-carboxamide (racemic)], with 117 nM; and `O=C(NC1CCS(=O)(=O)C1)c1ccc2c(-c3c(F)cccc3Cl)cn(-c3ccc(F)cc3)c2c1` (racemic) [Example 49, 3-(2-chloro-6-fluorophenyl)-N-(1,1-dioxidotetrahydrothiophen-3-yl)-1-(4-fluorophenyl)-1H-indole-6-carboxamide (racemic)], with 155 nM; and `CC(=O)Nc1cccc(-c2cn(-c3ccc(F)cc3)c3cc(C(=O)NC4CCS(=O)(=O)C4)ccc23)c1` (racemic) [Example 37, 3-[3-(acetylamino)phenyl]-N-(1,1-dioxidotetrahydrothiophen-3-yl)-1-(4-fluorophenyl)-1H-indole-6-carboxamide (racemic)], with 163 nM. On to `CC1(NC(=O)c2ccc3c(-c4ccccc4Cl)cn(-c4ccc(F)cc4)c3c2)CCS(=O)(=O)C1` (single isomer, unassigned; enantiomer a) [Example 1-A, 3-(2-chlorophenyl)-1-(4-fluorophenyl)-N-(3-methyl-1,1-dioxidotetrahydrothiophen-3-yl)-1H-indole-6-carboxamide (Enantiomer A, fast)], for which half-maximal inhibition (IC50) was put at 5.6 nM.

The molecule `O=C(NC1CCS(=O)(=O)C1)c1ccc2c(-c3ccccc3Cl)cn(-c3ccc(F)cc3)c2c1` (racemic) [Example 2, 3-(2-Chlorophenyl)-N-(1,1-dioxidotetrahydrothiophen-3-yl)-1-(4-fluorophenyl)-1H-indole-6-carboxamide] had an IC50 of 66 nM. In turn, `O=C(NC1CCS(=O)(=O)C1)c1ccc2c(-c3ccccc3F)cn(-c3ccc(F)cc3)c2c1` (racemic) [Example 40, N-(1,1-dioxidotetrahydrothiophen-3-yl)-3-(2-fluorophenyl)-1-(4-fluorophenyl)-1H-indole-6-carboxamide (racemic)] gave an IC50 of 26 nM. For `CC1(NC(=O)c2ccc3c(-c4ccccc4Cl)c(C#N)n(-c4ccc(F)cc4)c3c2)CCS(=O)(=O)C1` (single isomer, unassigned; enantiomer a) [Example 9-A, 3-(2-chlorophenyl)-2-cyano-1-(4-fluorophenyl)-N-(3-methyl-1,1-dioxidotetrahydrothiophen-3-yl)-1H-indole-6-carboxamide (Enantiomer A)], the IC50 turned out to be 448 nM. For `COCC(C)NC(=O)c1ccc2c(-c3ccccc3Cl)cn(-c3ccc(F)cc3)c2c1` (racemic) [Example 3, 3-(2-chlorophenyl)-1-(4-fluorophenyl)-N-(1-methoxypropan-2-yl)-1H-indole-6-carboxamide (racemic)] the value was 344 nM; for `CC1(NC(=O)c2ccc3c(-c4cccc(C5CC5)c4)cn(-c4ncc(F)cn4)c3c2)CCS(=O)(=O)C1` (single isomer, unassigned; enantiomer a) [Example 16-A, 3-(3-cyclopropylphenyl)-1-(5-fluoropyrimidin-2-yl)-N-(3-methyl-1,1-dioxidotetrahydrothiophen-3-yl)-1H-indole-6-carboxamide (enantiomer A)], 2.7 nM; for `O=C(NC1CCS(=O)(=O)C1)c1ccc2c(-c3cccc(OC(F)F)c3)cn(-c3ccc(F)cc3)c2c1` (racemic) [Example 39, 3-[3-(difluoromethoxy)phenyl]-N-(1,1-dioxidotetrahydrothiophen-3-yl)-1-(4-fluorophenyl)-1H-indole-6-carboxamide (racemic)], 1.1 nM. In the case of `O=C(NC1CCS(=O)(=O)C1)c1ccc2c(-c3cccc(O)c3)cn(-c3ccc(F)cc3)c2c1` (racemic) [Example 59, N-(1,1-dioxidotetrahydrothiophen-3-yl)-1-(4-fluorophenyl)-3-(3-hydroxyphenyl)-1H-indole-6-carboxamide (racemic)], the IC50 is 492 nM.
